Columns and labels:
[1] = biological target: T1, Alpha-2A adrenergic receptor (Homo sapiens, UniProt P08913); assay type: functional, cell-based
T1 sequence (P08913 whole entry): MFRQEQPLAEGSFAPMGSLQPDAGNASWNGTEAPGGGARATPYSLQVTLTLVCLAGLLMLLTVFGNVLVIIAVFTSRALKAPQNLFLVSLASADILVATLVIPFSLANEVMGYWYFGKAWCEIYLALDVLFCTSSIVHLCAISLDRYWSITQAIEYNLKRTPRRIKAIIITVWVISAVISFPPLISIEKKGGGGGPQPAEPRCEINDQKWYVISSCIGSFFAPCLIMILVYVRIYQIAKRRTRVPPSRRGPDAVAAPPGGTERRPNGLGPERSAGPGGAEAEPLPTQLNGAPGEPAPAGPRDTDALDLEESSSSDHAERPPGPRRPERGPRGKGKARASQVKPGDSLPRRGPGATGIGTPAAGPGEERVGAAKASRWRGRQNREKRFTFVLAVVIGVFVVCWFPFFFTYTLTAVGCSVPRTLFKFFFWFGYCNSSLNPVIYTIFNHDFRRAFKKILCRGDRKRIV

Cannabinoid receptor 1 = Cannabinoid receptor 1 (Homo sapiens, UniProt P21554); assay type: functional, cell-based
[2] = biological target: Sodium-dependent dopamine transporter (Homo sapiens, UniProt Q01959)
[3] = biological target: Gamma-aminobutyric acid receptor subunit alpha-1 (Rattus norvegicus, UniProt P62813)
Adenosine receptor A3 = biological target: T2, Adenosine receptor A3 (Homo sapiens, UniProt P0DMS8)
T2 sequence (P0DMS8 whole entry): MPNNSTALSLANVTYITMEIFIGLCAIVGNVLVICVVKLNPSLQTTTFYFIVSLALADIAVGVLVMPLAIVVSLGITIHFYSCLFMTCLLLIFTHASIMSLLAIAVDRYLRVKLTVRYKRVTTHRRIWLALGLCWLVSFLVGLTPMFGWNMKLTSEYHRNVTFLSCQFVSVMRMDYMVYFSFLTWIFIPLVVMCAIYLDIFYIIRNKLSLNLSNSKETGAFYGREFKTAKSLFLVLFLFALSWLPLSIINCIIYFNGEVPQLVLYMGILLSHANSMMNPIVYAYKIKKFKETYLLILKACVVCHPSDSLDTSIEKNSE

[4] = biological target: T3, Alpha-2C adrenergic receptor (Homo sapiens, UniProt P18825); assay type: functional
T3 sequence (P18825 whole entry): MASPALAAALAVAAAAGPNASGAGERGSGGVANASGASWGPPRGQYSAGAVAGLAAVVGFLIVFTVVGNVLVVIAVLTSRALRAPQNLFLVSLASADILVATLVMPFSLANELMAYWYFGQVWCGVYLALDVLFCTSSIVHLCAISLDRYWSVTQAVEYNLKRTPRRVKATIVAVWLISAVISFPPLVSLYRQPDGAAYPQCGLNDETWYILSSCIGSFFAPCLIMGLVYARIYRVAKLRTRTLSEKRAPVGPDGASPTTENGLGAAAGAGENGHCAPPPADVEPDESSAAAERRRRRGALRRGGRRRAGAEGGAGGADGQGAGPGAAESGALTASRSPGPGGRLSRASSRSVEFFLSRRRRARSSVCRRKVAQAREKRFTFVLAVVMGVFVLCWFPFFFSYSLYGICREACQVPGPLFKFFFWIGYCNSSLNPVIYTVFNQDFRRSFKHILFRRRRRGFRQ

[5] = biological target: T4, 5-hydroxytryptamine receptor 2B (Homo sapiens, UniProt P41595); assay type: functional, cell-based
[6] = biological target: T4, 5-hydroxytryptamine receptor 2B; assay type: functional, cell-based; remark: listed apart in the source
[7] = biological target: T5, Equilibrative nucleoside transporter 1 (Homo sapiens, UniProt Q99808)
T5 sequence (Q99808 whole entry): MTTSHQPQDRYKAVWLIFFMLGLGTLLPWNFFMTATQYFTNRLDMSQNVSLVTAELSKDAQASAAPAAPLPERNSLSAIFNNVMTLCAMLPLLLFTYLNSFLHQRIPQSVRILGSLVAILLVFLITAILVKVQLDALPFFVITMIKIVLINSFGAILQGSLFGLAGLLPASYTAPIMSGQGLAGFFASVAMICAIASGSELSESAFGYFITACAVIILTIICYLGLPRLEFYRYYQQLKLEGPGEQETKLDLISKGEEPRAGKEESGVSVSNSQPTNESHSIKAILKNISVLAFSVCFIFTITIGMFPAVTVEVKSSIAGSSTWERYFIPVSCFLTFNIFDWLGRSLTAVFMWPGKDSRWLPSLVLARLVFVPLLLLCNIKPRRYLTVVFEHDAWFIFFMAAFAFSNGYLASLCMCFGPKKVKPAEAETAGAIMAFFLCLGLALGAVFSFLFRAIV

[8] = biological target: T6, Gastrin/cholecystokinin type B receptor (Homo sapiens, UniProt P32239)
T6 sequence (P32239 whole entry): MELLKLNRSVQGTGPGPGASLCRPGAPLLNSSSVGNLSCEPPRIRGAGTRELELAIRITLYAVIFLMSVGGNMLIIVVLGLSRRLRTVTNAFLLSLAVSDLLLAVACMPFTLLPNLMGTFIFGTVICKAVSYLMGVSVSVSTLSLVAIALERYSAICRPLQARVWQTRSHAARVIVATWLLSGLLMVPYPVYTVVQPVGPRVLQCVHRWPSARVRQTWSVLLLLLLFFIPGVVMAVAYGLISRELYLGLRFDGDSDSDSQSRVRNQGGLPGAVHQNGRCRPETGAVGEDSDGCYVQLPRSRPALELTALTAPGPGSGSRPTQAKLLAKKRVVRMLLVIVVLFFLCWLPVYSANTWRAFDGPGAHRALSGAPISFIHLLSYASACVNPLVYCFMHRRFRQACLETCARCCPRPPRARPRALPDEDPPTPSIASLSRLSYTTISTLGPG
Also: assay procedure not described here.

Sodium-dependent dopamine transporter, sequence (Q01959 whole entry): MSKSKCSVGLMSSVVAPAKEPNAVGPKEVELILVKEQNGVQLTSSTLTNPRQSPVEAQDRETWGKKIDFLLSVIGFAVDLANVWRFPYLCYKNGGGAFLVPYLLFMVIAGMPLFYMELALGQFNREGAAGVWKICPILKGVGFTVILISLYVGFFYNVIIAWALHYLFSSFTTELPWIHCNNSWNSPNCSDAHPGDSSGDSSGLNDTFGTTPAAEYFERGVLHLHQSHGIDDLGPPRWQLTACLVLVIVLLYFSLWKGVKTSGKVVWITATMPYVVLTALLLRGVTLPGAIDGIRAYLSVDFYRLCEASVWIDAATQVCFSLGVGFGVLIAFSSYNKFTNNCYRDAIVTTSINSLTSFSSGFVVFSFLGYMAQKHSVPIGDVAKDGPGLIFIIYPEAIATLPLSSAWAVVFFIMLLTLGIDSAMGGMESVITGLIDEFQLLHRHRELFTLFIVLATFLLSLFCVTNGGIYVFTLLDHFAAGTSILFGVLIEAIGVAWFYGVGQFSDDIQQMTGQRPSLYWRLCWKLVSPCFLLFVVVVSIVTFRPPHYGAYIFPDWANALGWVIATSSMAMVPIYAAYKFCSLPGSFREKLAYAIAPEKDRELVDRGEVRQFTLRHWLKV
Cannabinoid receptor 1, sequence (P21554 whole entry): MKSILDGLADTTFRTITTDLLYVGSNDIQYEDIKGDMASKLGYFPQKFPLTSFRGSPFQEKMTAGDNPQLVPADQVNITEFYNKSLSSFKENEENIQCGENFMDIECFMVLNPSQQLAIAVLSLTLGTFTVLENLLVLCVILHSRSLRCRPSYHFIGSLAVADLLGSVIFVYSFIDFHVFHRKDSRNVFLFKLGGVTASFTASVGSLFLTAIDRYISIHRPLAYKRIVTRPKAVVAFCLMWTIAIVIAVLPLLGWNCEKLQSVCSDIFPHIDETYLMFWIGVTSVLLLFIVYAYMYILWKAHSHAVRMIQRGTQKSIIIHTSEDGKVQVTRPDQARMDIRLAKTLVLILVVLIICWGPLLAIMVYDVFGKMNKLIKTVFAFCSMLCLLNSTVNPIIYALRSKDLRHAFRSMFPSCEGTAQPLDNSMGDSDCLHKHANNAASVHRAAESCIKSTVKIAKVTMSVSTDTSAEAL
Gamma-aminobutyric acid receptor subunit alpha-1, sequence (P62813 whole entry): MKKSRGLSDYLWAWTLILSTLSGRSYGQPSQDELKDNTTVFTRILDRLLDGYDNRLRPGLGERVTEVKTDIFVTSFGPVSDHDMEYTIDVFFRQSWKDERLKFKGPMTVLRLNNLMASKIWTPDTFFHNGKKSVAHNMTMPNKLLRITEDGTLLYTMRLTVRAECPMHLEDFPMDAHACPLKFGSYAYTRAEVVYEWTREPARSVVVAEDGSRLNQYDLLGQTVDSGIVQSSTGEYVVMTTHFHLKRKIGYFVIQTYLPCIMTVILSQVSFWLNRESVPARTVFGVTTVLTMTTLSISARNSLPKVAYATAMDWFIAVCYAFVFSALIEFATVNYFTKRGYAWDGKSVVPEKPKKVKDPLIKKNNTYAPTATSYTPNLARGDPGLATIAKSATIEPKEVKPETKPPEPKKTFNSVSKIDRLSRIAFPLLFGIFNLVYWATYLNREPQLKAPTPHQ
T4 sequence (P41595 whole entry): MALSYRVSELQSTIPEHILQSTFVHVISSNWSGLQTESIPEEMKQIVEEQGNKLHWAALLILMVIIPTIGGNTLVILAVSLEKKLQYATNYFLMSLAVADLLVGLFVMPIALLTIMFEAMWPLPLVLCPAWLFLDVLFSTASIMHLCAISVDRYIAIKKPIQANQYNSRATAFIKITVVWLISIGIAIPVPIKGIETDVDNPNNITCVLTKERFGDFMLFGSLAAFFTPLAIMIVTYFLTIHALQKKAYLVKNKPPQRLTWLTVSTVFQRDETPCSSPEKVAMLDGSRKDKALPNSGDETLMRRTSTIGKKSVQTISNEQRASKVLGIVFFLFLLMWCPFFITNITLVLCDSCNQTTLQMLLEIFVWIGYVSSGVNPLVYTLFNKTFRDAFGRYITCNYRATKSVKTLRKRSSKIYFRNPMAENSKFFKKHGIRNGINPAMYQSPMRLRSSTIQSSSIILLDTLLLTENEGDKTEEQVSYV

Row | SMILES | AC50 [1] | AC50 (Cannabinoid receptor 1) | AC50 [2] | AC50 [3] | AC50 (Adenosine receptor A3) | AC50 [4] | AC50 [5] | AC50 [6] | AC50 [7] | AC50 [8]
1 | CN1CCN(C(=O)OC2c3nccnc3C(=O)N2c2ccc(Cl)cn2)CC1 (centres undefined) [ZOPICLONE] | > 10 µM | > 30 µM | > 30 µM | > 10 µM | 18.3 µM | > 30 µM | > 10 µM | > 10 µM | > 30 µM | > 30 µM
2 | Cc1cc2c(OCC(CNC(C)(C)C)OC(=O)c3ccccc3)cccc2[nH]1 (centres undefined) [BOPINDOLOL] | > 30 µM | > 30 µM | 12 µM | > 30 µM | > 30 µM | 3 µM | > 30 µM | 19 µM | > 30 µM | > 30 µM
3 | COc1ccc(C(=O)NCc2ccc(OCCN(C)C)cc2)cc1OC [ITOPRIDE] | > 30 µM | > 30 µM | > 30 µM | > 30 µM | > 30 µM | > 30 µM | > 30 µM | > 30 µM | > 30 µM | > 30 µM
4 | COc1c(C)c2c(c(O)c1C/C=C(\C)CCC(=O)OCCN1CCOCC1)C(=O)OC2 [MYCOPHENOLATE MOFETIL] | > 30 µM | > 30 µM | > 30 µM | > 30 µM | > 30 µM | > 30 µM | > 30 µM | > 30 µM | > 30 µM | > 30 µM
5 | Cc1c(O)c(=O)ccn1C [DEFERIPRONE] | > 30 µM | > 30 µM | > 30 µM | > 30 µM | > 30 µM | > 30 µM | > 30 µM | > 30 µM | > 30 µM | > 30 µM
6 | COc1ccc2c(c1)c(CC(=O)OCC(=O)O)c(C)n2C(=O)c1ccc(Cl)cc1 [ACEMETACIN] | > 30 µM | > 30 µM | > 30 µM | > 30 µM | > 30 µM | > 30 µM | > 30 µM | > 30 µM | > 30 µM | > 10 µM
7 | CCCCOc1cc(C(=O)NCCN(CC)CC)c2ccccc2n1 [DIBUCAINE] | > 10 µM | > 30 µM | > 10 µM | > 30 µM | > 30 µM | > 10 µM | > 10 µM | > 10 µM | > 10 µM | > 30 µM
8 | CC/C=C\C/C=C\C/C=C\CCCCCCCC(=O)O [LINOLENIC ACID] | > 30 µM | > 30 µM | > 30 µM | > 30 µM | > 30 µM | > 30 µM | > 30 µM |  | > 30 µM | > 30 µM
9 | CC(C)(Oc1ccc(C2CC2(Cl)Cl)cc1)C(=O)O (centres undefined) [CIPROFIBRATE] | > 30 µM | > 30 µM | > 30 µM | > 30 µM | > 30 µM | > 30 µM | > 30 µM | > 30 µM | > 30 µM | > 30 µM
10 | CCC(C(=O)O)c1ccc(CC(C)C)cc1 (centres undefined) [BUTIBUFEN] | > 30 µM | > 30 µM | > 30 µM | > 30 µM | > 30 µM | > 30 µM | > 30 µM | > 30 µM | > 30 µM | > 30 µM
